From US12208088B2 (Genentech, Inc., priority 2018, dated 2025)

Biological target: HPK1 (Homo sapiens (Human), UniProt Q92918)
Assay: HPK1 Lantha binding assay ("Lanth")
Conditions: binding assays; Morrison Ki fit
Outline: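 TR-FRET binding competition using 2 nM HPK1, 2 nM Eu-anti-GST antibody and 15 nM Tracer222 at 23 °C. Compound was incubated 1 h with enzyme and antibody, then 1 h after tracer addition, with an 11-point 5-fold dilution series. Ki obtained from a Morrison fit that corrects for tracer concentration and Kd.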

HPK1, sequence (Q92918 1-346 limits assumed): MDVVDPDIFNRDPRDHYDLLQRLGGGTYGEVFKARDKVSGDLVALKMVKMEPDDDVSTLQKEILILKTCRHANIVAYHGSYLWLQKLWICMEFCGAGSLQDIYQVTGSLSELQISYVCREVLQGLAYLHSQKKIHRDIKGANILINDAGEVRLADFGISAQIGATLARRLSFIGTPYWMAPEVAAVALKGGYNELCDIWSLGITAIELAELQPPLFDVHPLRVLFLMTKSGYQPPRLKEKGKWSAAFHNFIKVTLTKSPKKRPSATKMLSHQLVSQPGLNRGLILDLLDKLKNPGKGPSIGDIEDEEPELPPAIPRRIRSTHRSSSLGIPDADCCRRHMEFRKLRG

Compound: CN(C)C(=O)c1c(N)ccc(-c2cnc3c(c2Cl)[C@]2(CC[C@@](C)(C#N)CC2)CN3)c1F [Compound 250b, 6-Amino-3-((1r,4r)-4′-chloro-4-cyano-4-methyl-1′,2′-dihydrospiro[cyclohexane-1,3′-pyrrolo[2,3-b]pyridin]-5′-yl)-2-fluoro-N,N-dimethylbenzamide]
- Ki: 41.3 nM

Compound: Cc1c(CC#N)ccnc1-c1cccc(-c2cnc3c(c2)C2(CC2)CN3)c1F [Compound 251, 2-(2-(3-(1′,2′-Dihydrospiro[cyclopropane-1,3′-pyrrolo[2,3-b]pyridin]-5′-yl)-2-fluorophenyl)-3-methylpyridin-4-yl)acetonitrile]
- Ki: 3.15 nM

Compound: Cc1c(CC#N)ccnc1-c1cccc(-c2cnc3c(c2Cl)C2(CC=CC2)CN3)c1F [Compound 252, 2-(2-(3-(4′-Chloro-1′,2′-dihydrospiro[cyclopentane-1,3′-pyrrolo[2,3-b]pyridin]-3-en-5′-yl)-2-fluorophenyl)-3-methylpyridin-4-yl)acetonitrile]
- Ki: 5.94 nM

Compound: CN(C)C(=O)c1c(N)ccc(-c2cnc3c(c2Cl)[C@]2(CC[C@H](C(C)(C)O)CC2)CN3)c1F [Compound 255a, 6-Amino-3-((1s,4s)-4′-chloro-4-(2-hydroxypropan-2-yl)-1′,2′-dihydrospiro[cyclohexane-1,3′-pyrrolo[2,3-b]pyridin]-5′-yl)-2-fluoro-N,N-dimethylbenzamide]
- Ki: 19.9 nM

Compound: CN(C)C(=O)c1c(N)ccc(-c2cnc3c(c2Cl)[C@]2(CC[C@@H](C(C)(C)O)CC2)CN3)c1F [Compound 255b, 6-Amino-3-((1r,4r)-4′-chloro-4-(2-hydroxypropan-2-yl)-1′,2′-dihydrospiro[cyclohexane-1,3′-pyrrolo[2,3-b]pyridin]-5′-yl)-2-fluoro-N,N-dimethylbenzamide]
- Ki: 12 nM

Compound: CN(C)C(=O)c1c(N)ccc(-c2cnc3c(c2Cl)[C@]2(CC[C@@](C)(CO)CC2)CN3)c1F [Compound 256a, 6-Amino-3-((1r,4r)-4′-chloro-4-(hydroxymethyl)-4-methyl-1′,2′-dihydrospiro[cyclohexane-1,3′-pyrrolo[2,3-b]pyridin]-5′-yl)-2-fluoro-N,N-dimethylbenzamide]
- Ki: 11.1 nM

Compound: Cc1cc(CC#N)nn1-c1cccc(-c2cnc3c(c2Cl)C2(CC=CC2)CN3)c1 [Compound 257, 2-(1-(3-(4′-Chloro-1′,2′-dihydrospiro[cyclopentane-1,3′-pyrrolo[2,3-b]pyridin]-3-en-5′-yl)phenyl)-5-methyl-1H-pyrazol-3-yl)acetonitrile]
- Ki: 53.2 nM

Compound: CN(C)C(=O)c1c(N)ccc(-c2cnc3c(c2Cl)[C@]2(CC[C@@H](CN)CC2)CN3)c1F [Compound 258a, 6-Amino-3-((1r,4r)-4-(aminomethyl)-4′-chloro-1′,2′-dihydrospiro[cyclohexane-1,3′-pyrrolo[2,3-b]pyridin]-5′-yl)-2-fluoro-N,N-dimethylbenzamide]
- Ki: 190 nM

Compound: CN(C)C(=O)c1c(N)ccc(-c2cnc3c(c2Cl)[C@]2(CC[C@H](CN)CC2)CN3)c1F [Compound 258b, 6-Amino-3-((1s,4s)-4-(aminomethyl)-4′-chloro-1′,2′-dihydrospiro[cyclohexane-1,3′-pyrrolo[2,3-b]pyridin]-5′-yl)-2-fluoro-N,N-dimethylbenzamide]
- Ki: 150 nM

Compound: CN(Cc1cnn(C2CCNC2)c1)C(=O)c1cccc(-c2cnc3c(c2Cl)C2(CC=CC2)CN3)c1F (stereo not shown) [Compound 260, 3-(4′-Chloro-1′,2′-dihydrospiro[cyclopentane-1,3′-pyrrolo[2,3-b]pyridin]-3-en-5′-yl)-2-fluoro-N-methyl-N-((1-(pyrrolidin-3-yl)-1H-pyrazol-4-yl)methyl)benzamide]
- Ki: 38 nM

Compound: CN(Cc1cnn(CCO)c1)C(=O)c1cccc(-c2cnc3c(c2Cl)C2(CC=CC2)CN3)c1F [Compound 262, 3-(4′-Chloro-1′,2′-dihydrospiro[cyclopentane-1,3′-pyrrolo[2,3-b]pyridin]-3-en-5′-yl)-2-fluoro-N-((1-(2-hydroxyethyl)-1H-pyrazol-4-yl)methyl)-N-methylbenzamide]
- Ki: 12 nM

Compound: CN(C)C(=O)C1(c2cccc(-c3cnc4c(c3Cl)C3(CC=CC3)CN4)c2)CC1 [Compound 263, 1-(3-(4′-Chloro-1′,2′-dihydrospiro[cyclopentane-1,3′-pyrrolo[2,3-b]pyridin]-3-en-5′-yl)phenyl)-N,N-dimethylcyclopropane-1-carboxamide]
- Ki: 283 nM

Compound: NC(=O)C1(c2cccc(-c3cnc4c(c3Cl)C3(CC=CC3)CN4)c2F)CC1 [Compound 265, 1-(3-(4′-Chloro-1′,2′-dihydrospiro[cyclopentane-1,3′-pyrrolo[2,3-b]pyridin]-3-en-5′-yl)-2-fluorophenyl)cyclopropane-1-carboxamide]
- Ki: 108 nM

Compound: O=C(N1CCOCC1)C1(c2cccc(-c3cnc4c(c3Cl)C3(CC=CC3)CN4)c2)CC1 [Compound 268, (1-(3-(4′-Chloro-1′,2′-dihydrospiro[cyclopentane-1,3′-pyrrolo[2,3-b]pyridin]-3-en-5′-yl)phenyl)cyclopropyl)(morpholino)methanone]
- Ki: 484 nM

Compound: N#CCNC(=O)c1ccnc(-c2cccc(-c3cnc4c(c3Cl)C3(CC=CC3)CN4)c2F)c1 [Compound 269, 2-(3-(4′-Chloro-1′,2′-dihydrospiro[cyclopentane-1,3′-pyrrolo[2,3-b]pyridin]-3-en-5′-yl)-2-fluorophenyl)-N-(cyanomethyl)isonicotinamide]
- Ki: 191 nM

Compound: CN(CC#N)C(=O)C1(c2cccc(-c3cnc4c(c3Cl)C3(CC=CC3)CN4)c2)CC1 [Compound 270, 1-(3-(4′-Chloro-1′,2′-dihydrospiro[cyclopentane-1,3′-pyrrolo[2,3-b]pyridin]-3-en-5′-yl)phenyl)-N-(cyanomethyl)-N-methylcyclopropane-1-carboxamide]
- Ki: 331 nM

Compound: CN(C)C(=O)c1c(N)ccc(-c2cnc3c(c2Cl)[C@]2(CC[C@@H](S(C)(=O)=O)CC2)CN3)c1F [Compound 273a, 6-Amino-3-((1r,4r)-4′-chloro-4-(methylsulfonyl)-1′,2′-dihydrospiro[cyclohexane-1,3′-pyrrolo[2,3-b]pyridin]-5′-yl)-2-fluoro-N,N-dimethylbenzamide]
- Ki: 44.8 nM

Compound: Clc1c(-c2ccc3[nH]nnc3c2)cnc2c1C1(CC=CC1)CN2 [Compound 276, 5′-(1H-Benzo[d][1,2,3]triazol-5-yl)-4′-chloro-1′,2′-dihydrospiro[cyclopentane-1,3′-pyrrolo[2,3-b]pyridin]-3-ene]
- Ki: 252 nM

Compound: O=C1OCc2ccc(-c3cnc4c(c3)C3(CC3)CN4)cc21 [Compound 277, 6-(1′,2′-dihydrospiro[cyclopropane-1,3′-pyrrolo[2,3-b]pyridin]-5′-yl)isobenzofuran-1(3H)-one]
- Ki: 342 nM

Compound: CCC1(O)C(=O)Nc2ccc(-c3cnc4c(c3)C3(CC3)CN4)cc21 (stereo not shown) [Compound 278, 5-(1′,2′-dihydrospiro[cyclopropane-1,3′-pyrrolo[2,3-b]pyridin]-5′-yl)-3-ethyl-3-hydroxyindolin-2-one]
- Ki: 281 nM

Compound: CC1(C#N)C(=O)Nc2ccc(-c3cnc4c(c3)C3(CC3)CN4)cc21 (stereo not shown) [Compound 279, 5-(1′,2′-dihydrospiro[cyclopropane-1,3′-pyrrolo[2,3-b]pyridin]-5′-yl)-3-methyl-2-oxoindoline-3-carbonitrile]
- Ki: 41.8 nM

Compound: O=C1Nc2ccc(-c3cnc4c(c3Cl)C3(CC3)CN4)cc2C1(O)C1CC1 (stereo not shown) [Compound 280, 5-(4′-chloro-1′,2′-dihydrospiro[cyclopropane-1,3′-pyrrolo[2,3-b]pyridin]-5′-yl)-3-cyclopropyl-3-hydroxyindolin-2-one]
- Ki: 179 nM

Compound: CC1(C(N)=O)C(=O)Nc2ccc(-c3cnc4c(c3Cl)C3(CC3)CN4)cc21 (stereo not shown) [Compound 281, 5-(4′-chloro-1′,2′-dihydrospiro[cyclopropane-1,3′-pyrrolo[2,3-b]pyridin]-5′-yl)-3-methyl-2-oxoindoline-3-carboxamide]
- Ki: 144 nM

Compound: CC1(C#N)C(=O)Nc2ccc(-c3cnc4c(c3Cl)C3(CC3)CN4)cc21 (stereo not shown) [Compound 282, 5-(4′-chloro-1′,2′-dihydrospiro[cyclopropane-1,3′-pyrrolo[2,3-b]pyridin]-5′-yl)-3-methyl-2-oxoindoline-3-carbonitrile]
- Ki: 217 nM

Compound: Clc1c(-c2cccc3[nH]ccc23)cnc2c1C1(CC=CC1)CN2 [Compound 284, 4-Chloro-5′-(1H-indol-4-yl)-1′,2′-dihydrospiro[cyclopentane-1,3′-pyrrolo[2,3-b]pyridin]-3-ene]
- Ki: 629 nM

Compound: Clc1c(-c2ccc3[nH]ncc3c2)cnc2c1C1(CC=CC1)CN2 [Compound 285, 4-Chloro-5′-(1H-indazol-5-yl)-1′,2′-dihydrospiro[cyclopentane-1,3′-pyrrolo[2,3-b]pyridin]-3-ene]
- Ki: 375 nM

Compound: Clc1c(-c2cccc3[nH]ncc23)cnc2c1C1(CC=CC1)CN2 [Compound 286, 4-Chloro-5′-(1H-indazol-4-yl)-1′,2′-dihydrospiro[cyclopentane-1,3′-pyrrolo[2,3-b]pyridin]-3-ene]
- Ki: 120 nM

Compound: Clc1c(-c2ccc3[nH]ccc3c2)cnc2c1C1(CC=CC1)CN2 [Compound 287, 4-Chloro-5′-(1H-indol-5-yl)-1′,2′-dihydrospiro[cyclopentane-1,3′-pyrrolo[2,3-b]pyridin]-3-ene]
- Ki: 638 nM

Compound: CN(C)C(=O)c1nc(-c2cnc3c(c2Cl)[C@]2(CC[C@](C)(C#N)C2)CN3)ccc1N [Compound 288, 3-Amino-6-((1R,3 S)-4′-chloro-3-cyano-3-methyl-1′,2′-dihydrospiro[cyclopentane-1,3′-pyrrolo[2,3-b]pyridin]-5′-yl)-N,N-dimethylpicolinamide]
- Ki: 16 nM

Compound: Nc1cc(-c2cnc3c(c2)C2(CC2)CN3)nc(N2CCCOC2=O)n1 [Compound 289, 3-(4-amino-6-(1′,2′-dihydrospiro[cyclopropane-1,3′-pyrrolo[2,3-b]pyridin]-5′-yl)pyrimidin-2-yl)-1,3-oxazinan-2-one]
- Ki: 215 nM

Compound: Nc1ccc(-c2cnc3c(c2)C2(CC2)CN3)nc1C(=O)N1CC[C@H](O)C1 [Compound 290a, (S)-(3-amino-6-(1′,2′-dihydrospiro[cyclopropane-1,3′-pyrrolo[2,3-b]pyridin]-5′-yl)pyridin-2-yl)(3-hydroxypyrrolidin-1-yl)methanone]
- Ki: 559 nM
